Legend:
[1] = tested on: Tomato Early Blight organism, Alternaria solani; assay: Fungicidal efficacy, control of Tomato Early Blight on sprayed tomato seedlings; format: in vivo; details: for Fungicidal Efficacy - % Control, TEB (Tomato Early Blight): 250 ppm spray, about 12 days; for fungicidal activity on Tomato Early Blight (in words): Table I test
[2] = tested on: Powdery mildew pathogen, Erysiphe polygoni; assay: Fungicidal efficacy, control of Bean Powdery Mildew on sprayed bean seedlings; format: in vivo; details: for Fungicidal Efficacy - % Control, BPM (Bean Powdery Mildew): 250 ppm spray, inoculated one day later, about 10 days; for fungicidal activity on Bean Powdery Mildew (in words): Table I test
Text: The powdery mildew test was made using bean seedlings (variety Bountiful) with well-developed primary leaves. The pathogen was Erysiphe polygoni. […] The treated plants were inoculated one day after spray application of the test compound with the pathogen. […] The rate of infection on the leaves was made after about 10 days. The percent disease control provided by a given test compound was based on the disease reduction relative to untreated check plants. The results are reported in Table I. The test was repeated on Compound No. 1.

fungi = assay: Fungicidal activity overall (tests of Examples 1 and 2, Table I); format: in vivo
malaria = details: disclosed by Burkhalter et al, 1948; cited from earlier work
[3] = tested on: Tomato Late Blight, Phytophthora infestans; format: in vivo; details: 250 ppm spray; inoculated one day later; about 12 days

Row | Structure (SMILES) | Fungicidal Efficacy - % Control, TEB (Tomato Early Blight) [1] [%] | Fungicidal Efficacy - % Control, BPM (Bean Powdery Mildew) [2] [%] | fungicidal activity (in words) (fungi) | antimalarial activity (in words) (malaria) | also measured
1 | CCCN(CCC)Cc1cccc([N+](=O)[O-])c1 [Compound 1, N,N-Dipropyl-3-Nitro-Benzylamine] | 60 | 86 | unexpected fungicidal activity |  | % control, Tomato Early Blight (repeat test) ([1]; 16 ppm): 90%; % control, Tomato Early Blight (repeat test) ([1]; 40 ppm): 90%; % control, Tomato Early Blight (repeat test) ([1]; 100 ppm): 93%; fungicidal activity on Tomato Early Blight (in words) [1]: unexpected fungicidal activity; % control, powdery mildew (repeat test) ([2]; 16 ppm): 0%; % control, powdery mildew (repeat test) ([2]; 40 ppm): 56%; % control, powdery mildew (repeat test) ([2]; 100 ppm): 83%; fungicidal activity on Bean Powdery Mildew (in words) [2]: unexpected fungicidal activity
2 | CCN(CC)Cc1cccc([N+](=O)[O-])c1 [Compound 2, N,N-diethyl-3-nitro-benzylamine, reference compound] | 0 | 0 |  | antimalarial activity | fungicidal activity on Tomato Early Blight (in words) [1]: no fungicidal activity; fungicidal activity on Bean Powdery Mildew (in words) [2]: no fungicidal activity
3 | CCCN(CCC)Cc1ccc([N+](=O)[O-])cc1 [Compound 3, N,N-dipropyl-4-nitro-benzylamine, reference compound] | 0 | 0 | no fungicidal activity | antimalarial activity | 
4 | CCCN(CCC)Cc1cccc(F)c1 [Compound 4, reference compound] | 0 | 0 | no fungicidal activity |  | 
5 | CSc1cccc(NCc2cccc([N+](=O)[O-])c2)c1 [Compound 5, N-(3'-methylthiophenyl)-3-nitro-benzylamine] |  | 79 | activity comparable to that of Compound 1 |  | 
6 | CSc1cccc(N(Cc2cccc([N+](=O)[O-])c2)S(C)(=O)=O)c1 [Compound 6, N-(3-nitrobenzyl)-N-(3'-methylthiophenyl)-methane sulfonamide] | 81 |  | activity comparable to that of Compound 1 |  | Fungicidal Efficacy - % Control, TLB (Tomato Late Blight) [3]: 75%
7 | CS(=O)(=O)c1cccc(NCc2cccc([N+](=O)[O-])c2)c1 [Compound 7] |  |  | activity comparable to that of Compound 1 |  | Fungicidal Efficacy - % Control, TLB (Tomato Late Blight) [3]: 75%
8 | CCN(CC)Cc1ccc([N+](=O)[O-])cc1 [N,N-diethyl-4-nitro-benzylamine] |  |  |  | antimalarial activity | 

Reference: patent publication US4339461A, “N-Substituted 3-nitro-benzylamines” (Chevron Research Company, priority 1980, dated 1982)
